Patent US10159687B2, “Prodrugs of vitamin K” (KAPPA BIOSCIENCE AS, priority 2012, dated 2018)

Experiments:
[1] = Light stability in ethyl acetate (HPLC % area); format: physicochemical; settings: for After 19 hrs % (content as % area of the total peak area) / Initial % (content as % area of the total peak area) / MK-7 content in the sample after 19 hrs: in ethyl acetate; for After 19 hrs % (content as % area of the total peak area): after 19 hrs of light exposure (ordinary room lighting); for Initial % (content as % area of the total peak area): clear glass vial, initial time point; for light stability compared with the diacetylated compound: light exposure, comparison in words; for MK-7 content in the sample after 19 hrs: after 19 hrs of light exposure, MK-7 formed from the derivative
Method: The light stability of MK-7 was compared certain example compounds as hereinbefore described. Compounds were dissolved separately in ethyl acetate or MCT oil, transferred to glass vial (clear glass) and placed on the bench in a well lit laboratory (ordinary room lighting). The samples were analyzed after 19 hours of light exposure or more.
(§1) The samples were analyzed by HPLC using aHPLC_KB_001, with the HPLC conditions detailed below.
(§2) HPLC-DAD high pressure system: Agilent, LC system 1100 series
(§3) Analytical column: Supelcosil C-18, 4.6×250 mm, 5 µm
(§4) Column temperature: 40° C.
(§5) Eluent system: 50% Solvent C: MeOH/Water with 0.1% v/v acetic acid (95/5 v/v) 50% Solvent D: Isopropanol
(§6) The content of MK-7 and the MK-7 derivative in the samples have been quantified as % area of the total peak area in the chromatogram.

[2] = Light stability in MCT oil (HPLC % area); format: physicochemical; settings: for Purity after 1 h (%) / MK7 content in the sample after 1 h: light exposure 1 h; for Purity after 1 d (%) / MK7 content in the sample after 1 d: light exposure 1 d; for Purity after 3 d (%) / MK7 content in the sample after 3 d: light exposure 3 d; for MK7 content in the sample after 3 d: in %
Method: The light stability of MK-7 was compared certain example compounds as hereinbefore described. Compounds were dissolved separately in ethyl acetate or MCT oil, transferred to glass vial (clear glass) and placed on the bench in a well lit laboratory (ordinary room lighting). […]
as §1, §2, §3, §4, §5, §6

[3] = Rat study: MK-7 in plasma after oral gavage in sunflower oil; format: in vivo, male Sprague Dawley Rats; settings: rats
Method: Brief Procedure: Rats: Male Rats aged 6 to 8 weeks and weighing around 180 to 225 g. Animals were fasted overnight with free access to water. Animals were administered test substance by oral gavage with a dose of 100 μg/kg body weight (in recommended formulation and dose volume). Blood samples (150-200 μl) were collected at various time points during the next 48 hours post dose. To determine the bioavailability of different formulations containing MK-7 in male e Sprague Dawley Rats through gavage. Formulations were both dissolved in sunflower oil. Approximately 0.4 ml/animal (depending on the weight of the animal) via oral gavage (100 μg/kg body weight). There were 6 animals per formulation. Blood samples were collected from the tail vein of each animal and transferred into lithium heparin tubes at 2 and 12 hours post dose. Quantification of analyte in plasma was determined by LC-MS-MS analysis: Analyte: MK-7 in plasma. The data are mean of four measurements (low and high values are not included).

Row | Compound | After 19 hrs % (content as % area of the total peak area) [1] | Initial % (content as % area of the total peak area) [1] | light stability compared with the diacetylated compound [1] | Purity after 1 h (%) [2] | Purity after 1 d (%) [2] | Purity after 3 d (%) [2] | Start purity from CoA (%) ([2]; start) | MK-7 content in the sample after 19 hrs [1] | MK7 content in the sample after 1 h [2] | MK7 content in the sample after 1 d [2] | MK7 content in the sample after 3 d [2] | MK7 content in the sample at start ([2]; start) | serum level 12 hours after administration compared with MK-7 (in words) [3] | degradation after light exposure ([1]; in solution, after 19 hours of light exposure (below Table 1, ethyl acetate)) | degradation after light exposure ([2]; after 24 hours of light exposure)
1 | CC(C)=CCC/C(C)=C/CC/C(C)=C/CC/C(C)=C/CC/C(C)=C/CC/C(C)=C/CC/C(C)=C/Cc1c(C)c(OC(=O)c2ccccc2)c2ccccc2c1OC(=O)c1ccccc1 [Example 1, 2-((2E,6E,10E,14E,18E,22E)-3,7,11,15,19,23,27-heptamethyl-octacosa-2,6,10,14,18,22,26-heptaen-1-yl)-3-methylnaphthalene-1,4-diyl dibenzoate] | 95.4% | 98.5% | more stable than the diacetylated compound | 98.3% | 97.3% | 92.9% | 98.5% | – | – | – | – | – | – | – | –
2 | CC(C)=CCC/C(C)=C/CC/C(C)=C/CC/C(C)=C/CC/C(C)=C/CC/C(C)=C/CC/C(C)=C/Cc1c(C)c(O)c2ccccc2c1OC(=O)c1ccccc1 [Example 2A, 2-((2E,6E,10E,14E,18E,22E)-3,7,11,15,19,23,27-heptamethyloctacosa-2,6,10,14,18,22,26-heptaen-1-yl)-4-hydroxy-3-methylnaphthalen-1-yl benzoate] | 71.2% | 93.3% | – | 83.9% | 72.5% | 53.3% | 93.3% | 23.4% | 13.1% | 18.0% | 23.65 | 4% | – | – | –
3 | CC(C)=CCC/C(C)=C/CC/C(C)=C/CC/C(C)=C/CC/C(C)=C/CC/C(C)=C/CC/C(C)=C/Cc1c(C)c(OC(=O)c2ccccc2)c2ccccc2c1O [Example 2B, 3-((2E,6E,10E,14E,18E,22E)-3,7,11,15,19,23,27-heptamethyloctacosa-2,6,10,14,18,22,26-heptaen-1-yl)-4-hydroxy-2-methylnaphthalen-1-yl benzoate] | 87.6% | 91.5% | – | 91.9% | 84.6% | 63.8% | 91.5% | 2.8% | 2.7% | 4.1% | 5.6 | – | – | – | –
4 | CCOP(=O)(OC/C=C(\C)CC/C=C(\C)CC/C=C(\C)CC/C=C(\C)CC/C=C(\C)CC/C=C(\C)CCC=C(C)C)Oc1c(CC)c(C)c(OC(=O)c2ccccc2)c2ccccc12 (stereo not shown) [Example 4, 4-((ethoxy(((2E,6E,10E,14E,18E,22E)-3,7,11,15,19,23,27-heptamethyl-octacosa-2,6,10,14,18,22,26-heptaen-1-yl)oxy)phosphoryl)oxy)-3-ethyl-2-methylnaphthalen-1-yl benzoate] | – | – | – | 86.4% | 84.4% | 81.5% | 86.7% | – | – | – | – | – | – | – | –
5 | CCC(=O)Oc1c(C)c(C/C=C(\C)CC/C=C(\C)CC/C=C(\C)CC/C=C(\C)CC/C=C(\C)CC/C=C(\C)CCC=C(C)C)c(OC(=O)CC)c2ccccc12 [Example 7, 2-((2E,6E,10E,14E,18E,22E)-3,7,11,15,19,23,27-heptamethyloctacosa-2,6,10,14,18,22,26-heptaen-1-yl)-3-methylnaphthalene-1,4-diyl dipropionate] | 97.7% | 98.5% | more stable than the diacetylated compound | 98.0% | 96.7% | 93.8% | 98.5% | – | – | – | – | – | the same | – | –
6 | CCOP(=O)(OCC)Oc1c(C)c(C/C=C(\C)CC/C=C(\C)CC/C=C(\C)CC/C=C(\C)CC/C=C(\C)CC/C=C(\C)CCC=C(C)C)c(OC(=O)CC)c2ccccc12 [Example 9, 4-((diethoxyphosphoryl)oxy)-2-((2E,6E,10E,14E,18E,22E)-3,7,11,15,19,23,27-heptamethyloctacosa-2,6,10,14,18,22,26-heptaen-1-yl)-3-methylnaphthalen-1-yl propionate] | – | – | – | 90.1% | 89.0% | 84.2% | 90.7% | – | – | – | – | – | – | – | –
7 | CCC(=O)Oc1c(C/C=C(\C)CC/C=C(\C)CC/C=C(\C)CC/C=C(\C)CC/C=C(\C)CC/C=C(\C)CCC=C(C)C)c(C)c(OC(=O)[C@@H](NC(=O)OC(C)(C)C)C(C)C)c2ccccc12 [Example 10, 3-((2E,6E,10E,14E,18E,22E)-3,7,11,15,19,23,27-heptamethyloctacosa-2,6,10,14,18,22,26-heptaen-1-yl)-2-methyl-4-(propionyloxy)naphthalen-1-yl (tert-butoxycarbonyl)-L-valinate] | – | – | – | 92.7% | 92.0% | 89.0% | 93.5% | – | – | – | – | – | – | – | –
8 | CCC(=O)Oc1c(C/C=C(\C)CC/C=C(\C)CC/C=C(\C)CC/C=C(\C)CC/C=C(\C)CC/C=C(\C)CCC=C(C)C)c(C)c(OC(=O)CCNC(=O)OC(C)(C)C)c2ccccc12 [Example 12, 3-((2E,6E,10E,14E,18E,22E)-3,7,11,15,19,23,27-heptamethyloctacosa-2,6,10,14,18,22,26-heptaen-1-yl)-2-methyl-4-(propionyloxy)naphthalen-1-yl 3-((tert-butoxycarbonyl)amino)propanoate] | – | – | – | 91.9% | 89.4% | 84.4% | 92% | – | – | – | – | – | – | – | –
9 | CC(C)=CCC/C(C)=C/CC/C(C)=C/CC/C(C)=C/CC/C(C)=C/CC/C(C)=C/CC/C(C)=C/Cc1c(C)c(OC(=O)c2ccc(C(F)(F)F)cc2)c2ccccc2c1OC(=O)c1ccc(C(F)(F)F)cc1 [Example 13, 2-((2E,6E,10E,14E,18E,22E)-3,7,11,15,19,23,27-heptamethyloctacosa-2,6,10,14,18,22,26-heptaen-1-yl)-3-methylnaphthalene-1,4-diyl bis(4-(trifluoromethyl)benzoate)] | – | – | – | 83.6% | 84.8% | 79.6% | 90.2% | – | – | – | – | – | – | – | –
10 | CC(C)=CCC/C(C)=C/CC/C(C)=C/CC/C(C)=C/CC/C(C)=C/CC/C(C)=C/CC/C(C)=C/CC1=C(C)C(=O)c2ccccc2C1=O [MK-7, 2-((2E,6E,10E,14E,18E,22E)-3,7,11,15,19,23,27-heptamethyloctacosa-2,6,10,14,18,22,26-heptaen-1-yl)-3-methylnaphthalene-1,4-dione, reference compound] | 53.7% | 99.4% | – | 97.2% | 73.5% | 32.2% | 99% | – | – | – | – | – | – | approximately 50% | approximately 70%
